Reference: US11377423B2, “Inhibitors of histone deacetylase” (The Broad Institute, Inc., priority 2012, dated 2022)
pIC50: −log10 of the molar value. Where two headings read alike, the source gives them in different places.

What was measured:
[1] = target: T1, HDAC1 (Homo sapiens (Human), UniProt Q13547); assay: Caliper HDAC enzymatic endpoint assay, HDAC1; type: biochemical; conditions: read-out: HDAC1 IC50 3 h Prein; Table 2, 3 h preincubation
Description: (§1) Substrate A was prepared as 2 mM in DMSO. Its final concentration in the assay for HDACs 1, 2, 3, 6 is 2 μM.
(§2) Below is the HDAC and Substrate concentration used in this assay.

[2] = target: HDAC3 (Homo sapiens (Human), UniProt O15379); assay: Caliper HDAC enzymatic endpoint assay, HDAC3; type: biochemical; conditions: read-out: HDAC3 IC50 3 h Prein; Table 2, 3 h preincubation
Description: as §1, §2

[3] = tested on: HDACs 1, 2, 3, 4, 5, 6, 7, 8, and 9; assay: HDAC selectivity panel (Caliper), isoform selectivity; conditions: from IC50 values
[4] = target: T2, HDAC2 (Homo sapiens (Human), UniProt Q92769); assay: Caliper HDAC enzymatic endpoint assay, HDAC2; type: biochemical; conditions: read-out: HDAC2 IC50 3 h Prein; Table 2, 3 h preincubation
Description: as §1, §2

[5] = target: HDAC8 (Homo sapiens (Human), UniProt Q9BY41); assay: Caliper HDAC enzymatic endpoint assay, HDAC8; type: biochemical; conditions: Table 2C; read-out: HDAC8 IC50 after 0 hr preincubation
Description: (§3) The Caliper HDAC Assay Buffer (acronym HAB, 1 liter) was prepared as follows:
(§4) Substrate B was prepared as 2 mM in 100% DMSO. Its final concentration in the assay for HDACs 4, 5, 7, 8, 9 is 2 μM.
(§5) LBH was used as quench inhibitor to stop the reaction at the end point.
IC50 values are in micromolar.

[6] = tested on: INS-1E cells; assay: Cytokine-induced beta-cell apoptosis, caspase-3 activity assay; type: cell-based, rat; conditions: IL-1β, IFN-γ, TNF-α, 48 hours, 5 μM compound
Description: Compounds of the invention were evaluated for their ability to suppress cytokine-induced beta-cell apoptosis and palmitate and/or glucose-induced beta-cell apoptosis by inhibition of HDAC3. Assay protocols were as follows: Cell culture and reagents. […] Recombinant IL-1β, IFN-γ, and TNF-α were purchased from R&D Systems. Palmitate, D-glucose and fatty acids-free low endotoxin BSA were purchased from Sigma. Palmitate was solubilized in 90% ethanol, heated to 60° C. and used 1:100 dilution in media. Caspase-Glo 3/7 was from Promega and 3-(4,5-dimethylthiazol-2-yl)-2,5-diphenyltetrazolium bromide (MTT) was from Calbiochem. Antibodies for HDAC1, HDAC2, HDAC3, pJNK, JNK cleaved caspase-9 and secondary horseradish-peroxidase conjugated goat anti-mouse and anti-rabbit antibodies were from Cell Signaling. Antibody for beta-actin was from Sigma and antibody against CHOP (GADD153) from Abcam. HDAC inhibitors were purchased from Selleck Chemicals or synthesized in-house. Primers were from Integrated DNA Technologies, High Capacity cDNA RT kit and SYBR green master mix were purchased from Applied Biosystems. INS-1E cells were seeded at 5,000 cells/well using a Multidrop Combi (Thermo Labsystems) in white optical 384-well plates (Corning Life Sciences). After overnight incubation, medium was removed and 50 μL RPMI containing the treated compound, 1% FBS and either a combination of cytokines (10 ng/mL IL-1β, 50 ng/mL IFN-γ, 25 ng/mL TNF-α) or 0.5 mM sodium palmitate was added to every well. After two-day treatment, medium was removed and 20 μL Caspase-Glo 3/7 reagent was added. Luminescence was measured after a two-hour incubation using an Envision plate reader (PerkinElmer). […] The rat INS-1E cell line was simultaneously treated for 48 hours with a combination of pro-inflammatory cytokines IL-1β, IFN-γ, and TNF-α, and the indicated test compounds. […] Compound 9, a negative control, had no effect. […] FIGS. 9C and 9D show a dose-response analysis of HDAC inhibition in suppression of cytokine-induced beta-cell apoptosis. […] This could translate to a larger therapeutic window. […]

[7] = tested on: human megakaryocyte progenitors; assay: Growth of human megakaryocyte progenitors (surrogate assay for platelet depletion); type: cell-based; conditions: 0.1, 1, 10 and 20 μM, relative to DMSO treated cells
Description: Compounds of the invention were evaluated for their effect on the growth of human megakaryocyte progenitors (surrogate assay for platelet depletion). Human CD34+ cells were grown in a collagen-based gel (Megacult-C, Stemcell Technologies). […] 100% indicates no difference in cell viability relative to the DMSO treated cells. […] This is the desired effect.

[8] = target: HDAC7 (Homo sapiens (Human), UniProt Q8WUI4); assay: Caliper HDAC enzymatic endpoint assay, HDAC7; type: biochemical; conditions: Table 2C; read-out: HDAC7 IC50 after 0 hr preincubation
Description: as §3, §4, §5
IC50 values are in micromolar.

[9] = target: HDAC4 (Homo sapiens (Human), UniProt P56524); assay: Caliper HDAC enzymatic endpoint assay, HDAC4; type: biochemical; conditions: Table 2C; read-out: HDAC4 IC50 after 0 hr preincubation
Description: as §3, §4, §5
IC50 values are in micromolar.

[10] = target: HDAC6 (Homo sapiens (Human), UniProt Q9UBN7); assay: Caliper HDAC enzymatic endpoint assay, HDAC6; type: biochemical; conditions: Table 2C; read-out: HDAC6 IC50 after 0 hr preincubation
Description: as §1, §2

[11] = target: HDAC9 (Homo sapiens (Human), UniProt Q9UKV0); assay: Caliper HDAC enzymatic endpoint assay, HDAC9; type: biochemical; conditions: Table 2C; read-out: HDAC9 IC50 after 0 hr preincubation
Description: as §3, §4, §5
IC50 values are in micromolar.

[12] = target: HDAC5 (Homo sapiens (Human), UniProt Q9UQL6); assay: Caliper HDAC enzymatic endpoint assay, HDAC5; type: biochemical; conditions: Table 2C; read-out: HDAC5 IC50 after 0 hr preincubation
Description: as §3, §4, §5
IC50 values are in micromolar.

[13] = target: T2, HDAC2
[14] = target: T1, HDAC1; assay: Kinetics of the inhibition of HDAC1; conditions: HDAC1 residence
Description: HDAC1 inactivation kinetic constant was determined by curve-fitting of the plot to a first-order rate equation.

[15] = Brain and plasma concentration in mice; type: in vivo; conditions: for half-life: mouse, other: injected (site of injection not given)
Description: Specifically, mice were injected with a single dose of compound and the concentration of compound was measured in the brain and plasma of mice at 8 time points. The samples were analyzed by LC-MS/MS.

[16] = mice, single dose, Repligen 136 30 mg/kg, Compound 1 10 mg/kg

T1 sequence (Q13547 whole entry): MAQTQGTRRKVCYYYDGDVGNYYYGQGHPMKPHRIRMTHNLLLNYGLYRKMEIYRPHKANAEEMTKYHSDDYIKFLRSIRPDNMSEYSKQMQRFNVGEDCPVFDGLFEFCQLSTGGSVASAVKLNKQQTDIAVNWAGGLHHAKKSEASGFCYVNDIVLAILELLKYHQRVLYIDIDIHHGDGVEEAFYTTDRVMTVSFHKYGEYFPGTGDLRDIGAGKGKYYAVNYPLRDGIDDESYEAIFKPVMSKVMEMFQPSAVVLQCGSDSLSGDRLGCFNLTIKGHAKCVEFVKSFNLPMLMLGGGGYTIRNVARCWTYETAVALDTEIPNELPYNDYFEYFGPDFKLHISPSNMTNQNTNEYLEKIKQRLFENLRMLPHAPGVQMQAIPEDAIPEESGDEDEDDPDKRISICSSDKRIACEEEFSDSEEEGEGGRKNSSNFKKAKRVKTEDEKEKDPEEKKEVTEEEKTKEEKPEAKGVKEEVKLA
T2 sequence (Q92769 whole entry): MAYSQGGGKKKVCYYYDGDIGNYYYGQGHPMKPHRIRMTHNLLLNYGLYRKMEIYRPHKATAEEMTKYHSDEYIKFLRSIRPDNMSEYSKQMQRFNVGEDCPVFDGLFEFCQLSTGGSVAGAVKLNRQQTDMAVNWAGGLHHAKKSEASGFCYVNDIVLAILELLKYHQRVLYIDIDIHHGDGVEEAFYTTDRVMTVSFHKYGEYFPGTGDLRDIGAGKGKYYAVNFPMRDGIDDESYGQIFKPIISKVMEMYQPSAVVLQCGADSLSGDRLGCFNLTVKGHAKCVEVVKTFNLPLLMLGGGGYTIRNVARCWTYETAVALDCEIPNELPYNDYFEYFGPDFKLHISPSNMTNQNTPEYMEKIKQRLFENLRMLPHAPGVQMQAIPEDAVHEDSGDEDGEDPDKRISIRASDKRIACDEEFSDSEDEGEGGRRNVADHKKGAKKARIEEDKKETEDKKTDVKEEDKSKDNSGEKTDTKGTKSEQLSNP
Chain of HDAC3 (O15379 whole entry, canonical isoform): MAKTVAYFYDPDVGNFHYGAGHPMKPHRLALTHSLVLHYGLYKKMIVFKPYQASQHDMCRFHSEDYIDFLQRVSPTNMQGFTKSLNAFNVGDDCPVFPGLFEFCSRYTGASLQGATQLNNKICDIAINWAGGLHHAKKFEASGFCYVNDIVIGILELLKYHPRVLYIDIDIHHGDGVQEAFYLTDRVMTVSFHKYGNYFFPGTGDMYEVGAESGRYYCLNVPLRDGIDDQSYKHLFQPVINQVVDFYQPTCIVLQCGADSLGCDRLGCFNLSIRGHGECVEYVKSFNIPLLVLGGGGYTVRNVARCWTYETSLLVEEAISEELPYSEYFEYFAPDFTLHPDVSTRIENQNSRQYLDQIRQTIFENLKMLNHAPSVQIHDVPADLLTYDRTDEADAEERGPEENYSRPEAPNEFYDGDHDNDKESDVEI
Chain of HDAC3 (Q9Y618 395-489 partner): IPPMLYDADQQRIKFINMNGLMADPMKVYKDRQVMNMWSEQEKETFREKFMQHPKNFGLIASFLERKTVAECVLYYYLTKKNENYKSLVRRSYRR
Chain of HDAC5 (Q9UQL6 whole entry): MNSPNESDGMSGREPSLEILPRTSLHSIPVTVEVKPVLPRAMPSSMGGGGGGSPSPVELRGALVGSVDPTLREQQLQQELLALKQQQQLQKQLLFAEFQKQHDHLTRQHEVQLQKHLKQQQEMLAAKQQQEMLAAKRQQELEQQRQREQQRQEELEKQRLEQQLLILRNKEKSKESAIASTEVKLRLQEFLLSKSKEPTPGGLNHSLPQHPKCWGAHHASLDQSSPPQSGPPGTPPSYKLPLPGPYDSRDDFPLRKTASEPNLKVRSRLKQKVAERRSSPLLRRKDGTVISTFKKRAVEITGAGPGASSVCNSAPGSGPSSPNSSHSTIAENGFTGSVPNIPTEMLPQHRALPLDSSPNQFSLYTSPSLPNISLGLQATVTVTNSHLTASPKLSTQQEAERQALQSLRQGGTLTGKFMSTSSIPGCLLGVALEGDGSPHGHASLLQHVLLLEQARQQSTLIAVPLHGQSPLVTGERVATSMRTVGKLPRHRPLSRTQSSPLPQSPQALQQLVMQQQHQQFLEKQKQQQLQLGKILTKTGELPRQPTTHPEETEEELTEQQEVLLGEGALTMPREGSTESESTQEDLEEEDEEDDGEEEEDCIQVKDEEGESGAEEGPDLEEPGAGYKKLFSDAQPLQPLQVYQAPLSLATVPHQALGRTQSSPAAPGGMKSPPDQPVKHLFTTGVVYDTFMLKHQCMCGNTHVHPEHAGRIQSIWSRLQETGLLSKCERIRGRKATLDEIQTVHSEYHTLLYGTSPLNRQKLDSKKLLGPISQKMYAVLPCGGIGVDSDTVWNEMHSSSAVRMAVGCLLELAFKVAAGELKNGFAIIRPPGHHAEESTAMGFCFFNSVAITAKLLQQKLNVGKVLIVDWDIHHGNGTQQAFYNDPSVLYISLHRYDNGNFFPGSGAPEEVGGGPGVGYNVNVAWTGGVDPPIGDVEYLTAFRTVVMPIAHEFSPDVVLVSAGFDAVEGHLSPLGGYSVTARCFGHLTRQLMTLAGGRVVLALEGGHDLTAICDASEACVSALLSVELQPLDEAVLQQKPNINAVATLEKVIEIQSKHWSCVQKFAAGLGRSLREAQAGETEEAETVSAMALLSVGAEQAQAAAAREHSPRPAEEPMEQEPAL
Chain of HDAC9 (Q9UKV0 whole entry): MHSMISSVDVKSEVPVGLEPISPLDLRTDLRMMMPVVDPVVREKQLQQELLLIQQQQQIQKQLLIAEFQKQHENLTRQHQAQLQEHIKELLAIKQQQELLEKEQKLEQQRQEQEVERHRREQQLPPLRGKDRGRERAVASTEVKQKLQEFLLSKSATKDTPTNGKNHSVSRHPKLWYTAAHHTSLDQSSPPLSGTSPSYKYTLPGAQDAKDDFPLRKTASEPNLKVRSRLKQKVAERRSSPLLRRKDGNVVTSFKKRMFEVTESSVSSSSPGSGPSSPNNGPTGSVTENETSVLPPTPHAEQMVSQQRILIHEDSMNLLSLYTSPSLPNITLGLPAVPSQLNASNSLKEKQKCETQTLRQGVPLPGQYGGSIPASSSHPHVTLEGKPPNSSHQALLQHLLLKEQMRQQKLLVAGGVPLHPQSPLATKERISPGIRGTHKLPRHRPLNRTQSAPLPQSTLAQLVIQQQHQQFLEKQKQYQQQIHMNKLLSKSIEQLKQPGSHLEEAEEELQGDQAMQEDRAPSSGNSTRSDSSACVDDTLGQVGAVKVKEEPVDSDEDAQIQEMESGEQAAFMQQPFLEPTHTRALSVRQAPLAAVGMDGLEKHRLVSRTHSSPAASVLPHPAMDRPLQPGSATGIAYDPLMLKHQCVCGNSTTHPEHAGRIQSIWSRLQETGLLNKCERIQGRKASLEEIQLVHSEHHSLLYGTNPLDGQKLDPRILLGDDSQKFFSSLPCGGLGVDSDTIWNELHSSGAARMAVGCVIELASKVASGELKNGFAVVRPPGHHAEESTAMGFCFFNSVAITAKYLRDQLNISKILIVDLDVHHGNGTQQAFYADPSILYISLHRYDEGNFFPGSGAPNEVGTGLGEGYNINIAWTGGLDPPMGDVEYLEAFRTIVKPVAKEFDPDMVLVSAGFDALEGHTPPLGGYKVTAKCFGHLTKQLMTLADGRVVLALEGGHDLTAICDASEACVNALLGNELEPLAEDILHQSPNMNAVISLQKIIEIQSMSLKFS
Chain of HDAC4 (P56524 whole entry): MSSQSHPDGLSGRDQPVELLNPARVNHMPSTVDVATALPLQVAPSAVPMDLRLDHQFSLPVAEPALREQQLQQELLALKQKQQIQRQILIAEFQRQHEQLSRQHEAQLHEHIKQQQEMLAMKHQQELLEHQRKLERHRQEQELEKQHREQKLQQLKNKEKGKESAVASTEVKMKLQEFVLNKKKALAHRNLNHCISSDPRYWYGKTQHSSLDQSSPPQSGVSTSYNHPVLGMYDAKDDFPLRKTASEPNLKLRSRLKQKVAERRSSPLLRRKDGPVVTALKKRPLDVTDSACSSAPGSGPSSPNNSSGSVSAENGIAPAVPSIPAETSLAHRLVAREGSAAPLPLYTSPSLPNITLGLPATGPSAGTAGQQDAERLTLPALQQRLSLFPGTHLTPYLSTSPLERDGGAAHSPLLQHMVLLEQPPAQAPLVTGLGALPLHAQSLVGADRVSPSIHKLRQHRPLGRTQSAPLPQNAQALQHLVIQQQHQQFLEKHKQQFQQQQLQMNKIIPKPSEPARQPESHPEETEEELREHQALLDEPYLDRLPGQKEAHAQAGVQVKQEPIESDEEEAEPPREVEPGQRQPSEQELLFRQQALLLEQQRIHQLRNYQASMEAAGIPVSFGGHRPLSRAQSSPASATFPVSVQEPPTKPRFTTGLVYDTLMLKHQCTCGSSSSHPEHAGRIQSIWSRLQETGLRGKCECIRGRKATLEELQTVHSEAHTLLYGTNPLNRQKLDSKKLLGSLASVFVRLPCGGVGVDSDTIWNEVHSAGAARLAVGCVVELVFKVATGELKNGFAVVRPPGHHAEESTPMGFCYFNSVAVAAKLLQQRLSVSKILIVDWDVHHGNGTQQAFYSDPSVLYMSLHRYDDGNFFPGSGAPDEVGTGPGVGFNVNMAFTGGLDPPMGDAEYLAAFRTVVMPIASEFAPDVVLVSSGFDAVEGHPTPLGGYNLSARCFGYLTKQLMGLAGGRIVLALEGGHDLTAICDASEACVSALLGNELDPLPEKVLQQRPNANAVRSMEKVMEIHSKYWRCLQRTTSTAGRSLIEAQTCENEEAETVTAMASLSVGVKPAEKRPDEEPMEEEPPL

## CC(=O)Nc1ccc(C(=O)Nc2ccc(F)cc2N)c(F)c1 [Compound 6, 4-acetamido-N-(2-amino-4-fluorophenyl)-2-fluorobenzamide]
[1]
  pIC50: 5.86
[2]
  pIC50: 7.10
[3]
  HDAC isoform selectivity: HDAC3 selective compound
[4]
  pIC50: 5.51

## Nc1cc(F)ccc1NC(=O)c1ccccc1 [Compound 7, N-(2-amino-4-fluorophenyl)benzamide]
[1]
  pIC50: 5.10
[2]
  pIC50: 6.38
[3]
  HDAC isoform selectivity: HDAC3 selective compound
[4]
  pIC50: 4.90

## Nc1cc(F)ccc1NC(=O)c1ccc(F)cc1 [Compound 8, N-(2-amino-4-fluorophenyl)-4-fluorobenzamide]
[1]
  pIC50: 5.08
[2]
  pIC50: 6.36
[3]
  HDAC isoform selectivity: HDAC3 selective compound
[4]
  pIC50: 4.93

## CC(=O)Nc1ccc(C(=O)Nc2ccc(C)cc2N)cc1 [Compound 9, 4-acetamido-N-(2-amino-4-methylphenyl)benzamide]
[5]
  pIC50: < 4.48
[6]
  suppression of cytokine-induced beta-cell apoptosis (caspase activity): no effect
[1]
  pIC50: < 4.48
[7]
  effect on growth and viability of human megakaryocyte progenitor cells: no significant effect on growth and viability
[2]
  pIC50: < 4.48
[8]
  pIC50: < 4.48
[9]
  pIC50: < 4.48
[10]
  pIC50: < 4.48
[11]
  pIC50: < 4.48
[4]
  pIC50: < 4.48
[12]
  pIC50: < 4.48

## CC(=O)Nc1ccc(C(=O)Nc2ccc(C(F)(F)F)cc2N)cc1 [Compound 10, 4-acetamido-N-(2-amino-4-(trifluoromethyl)phenyl)benzamide]
[1]
  pIC50: < 4.48
[2]
  pIC50: < 4.48
[4]
  pIC50: < 4.48

## CC(=O)Nc1ccc(C(=O)Nc2cc(F)ccc2N)cc1 [Compound 11, 4-acetamido-N-(2-amino-5-fluorophenyl)benzamide]
[1]
  pIC50: 6.82
[2]
  pIC50: 6.97
[4]
  pIC50: 6.32

## CC(=O)Nc1ccc(C(=O)Nc2ccccc2N)c(F)c1 [Compound 12, 4-acetamido-N-(2-aminophenyl)-2-fluorobenzamide]
[1]
  pIC50: 7.05
[2]
  pIC50: 7.08
[4]
  pIC50: 6.52

## Nc1ccccc1NC(=O)c1ccc(CNC(=O)OCc2cccnc2)cc1 [MS-275, reference compound]
[13]
  T1/2: 1.05 h
[14]
  T1/2: 1.77 h

## Cc1ccc(C(=O)NCCCCCC(=O)Nc2ccc(F)cc2N)cc1 [Repligen 136, N-(6-(2-amino-4-fluorophenylamino)-6-oxohexyl)-4-methylbenzamide, reference compound]
[15]; [16]
  AUC Brain: 0.32 µM·h
  Cmax Brain: 370 nM
  concentration in the brain over time: not measurable after 2 hours
[15]; brain, read-out: T1/2 Brain (converted)
  half-life: 0.34 h
[15]; plasma, read-out: T1/2 Plasma (converted)
  half-life: 1.38 h
